Experimental data taken from US20250042922A1, “KRAS MODULATING COMPOUNDS” (priority 2023, published 2025).

Tests used:
GDP-loaded KRAS-G12D = GDP-loaded KRAS-G12D (Homo sapiens, UniProt P01116, G12D); assay: KRAS (GDP) biochemical TR-FRET probe displacement assay, G12D; format: binding; details: 2 hours
Method: (§1) Compounds are tested for binding to GDP-loaded wild-type KRAS (WT), KRAS-G12C, KRAS-G12D, and KRAS-G12V in a 384-well assay format using a TR-FRET probe displacement assay in buffer consisting of 50 mM Hepes (pH 7.4), 150 mM NaCl, 5 mM MgCl2 and 0.005% Tween-20. […] Compounds are serially diluted (1:3) in DMSO. The LabCyte ECHO Acoustic dispenser was used to pre-spot the assay plates (384-well Non-Binding Surface plates, Corning, Catalog #3824) with 50 nL of compound. 5 μL of 2X enzyme concentration is added to the pre-spotted plates and incubated for 30 minutes before adding 5 μL of 2X concentration of Eu-streptavidin and Cy-5 labelled probe (10 μL final reaction volume). The plates are incubated at room temperature for 2 hours before measuring TR-FRET ratio (665 nm/615 nm) on the Envision multimode plate reader. The ratios are normalized to a positive (saturating concentration of known inhibitor) and negative (DMSO) control and plotted against the log of compound concentration.

[1] = tested on: cellular pERK in Kuramochi (WT KRAS) cells; assay: Cell based pERK assay, Kuramochi; details: Kuramochi (WT KRAS), 2 hours incubation, HTRF phospho-ERK1/2; read-out: Kuramochi pERK EC50
Procedure, shortened: (§2)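 Cells seeded overnight (5000 AsPC-1 or 7500 others per well; RPMI/10% FBS, DMEM/10% FBS for MIA-PaCa-2), treated with 1:3 serial dilutions for 2 h at 37 °C. Phospho-ERK1/2 (Thr202/Tyr204) measured by HTRF (665/615 nm) after overnight lysis, normalized to DMSO and saturating known-inhibitor controls.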

GDP-loaded KRAS-G12V = GDP-loaded KRAS-G12V (Homo sapiens, UniProt P01116, G12V); assay: KRAS (GDP) biochemical TR-FRET probe displacement assay, G12V; format: binding; details: 2 hours
Method: as §1

[2] = target: GDP-loaded wild-type KRAS (WT) (Homo sapiens, UniProt P01116); assay: KRAS (GDP) biochemical TR-FRET probe displacement assay, WT; format: binding; details: 2 hours
Method: as §1

[3] = tested on: cellular pERK in NCI-H441 (KRAS-G12V) cells; assay: Cell based pERK assay, NCI-H441; details: Homo sapiens; NCI-H441 (KRAS-G12V), 2 hours incubation, HTRF phospho-ERK1/2; read-out: H441 PERK EC50
Procedure, shortened: as §2

GDP-loaded KRAS-G12C = GDP-loaded KRAS-G12C (Homo sapiens, UniProt P01116, G12C); assay: KRAS (GDP) biochemical TR-FRET probe displacement assay, G12C; format: binding; details: 2 hours
Method: as §1

[4] = tested on: cellular pERK in MIA-PaCa-2 (KRAS-G12C) cells; assay: Cell based pERK assay, MIA-PaCa-2; details: Homo sapiens; MIA-PaCa-2 (KRAS-G12C), 2 hours incubation, HTRF phospho-ERK1/2; read-out: MIAPaCa2 pERK EC50
Procedure, shortened: as §2

[5] = tested on: cellular pERK in ASPC-1 (KRAS G12D) cells; assay: Cell based pERK assay, ASPC-1; details: Homo sapiens, ASPC1; ASPC-1 (KRAS G12D), 2 hours incubation, HTRF phospho-ERK1/2; read-out: AsPC1 pERK EC50
Procedure, shortened: as §2

Chain of GDP-loaded wild-type KRAS (WT) (P01116 1-188 isoform P01116-2): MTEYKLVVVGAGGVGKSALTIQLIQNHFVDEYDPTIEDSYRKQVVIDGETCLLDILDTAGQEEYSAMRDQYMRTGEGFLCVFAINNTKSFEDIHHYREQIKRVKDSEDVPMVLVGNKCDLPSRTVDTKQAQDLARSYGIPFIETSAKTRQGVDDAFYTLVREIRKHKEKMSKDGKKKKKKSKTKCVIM
Chain of GDP-loaded KRAS-G12V (P01116 1-188 isoform P01116-2 G12V): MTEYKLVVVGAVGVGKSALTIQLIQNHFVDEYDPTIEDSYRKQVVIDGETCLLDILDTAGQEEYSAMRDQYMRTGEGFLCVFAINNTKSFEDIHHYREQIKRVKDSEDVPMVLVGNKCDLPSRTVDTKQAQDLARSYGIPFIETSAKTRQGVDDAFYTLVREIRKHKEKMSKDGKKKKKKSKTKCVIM
Chain of GDP-loaded KRAS-G12D (P01116 1-188 isoform P01116-2 G12D): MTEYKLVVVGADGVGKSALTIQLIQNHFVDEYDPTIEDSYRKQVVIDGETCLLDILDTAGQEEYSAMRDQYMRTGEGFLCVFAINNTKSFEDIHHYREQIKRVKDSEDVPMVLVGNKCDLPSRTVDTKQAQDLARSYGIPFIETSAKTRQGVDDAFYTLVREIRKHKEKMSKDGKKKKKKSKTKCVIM
Chain of GDP-loaded KRAS-G12C (P01116 1-188 isoform P01116-2 G12C): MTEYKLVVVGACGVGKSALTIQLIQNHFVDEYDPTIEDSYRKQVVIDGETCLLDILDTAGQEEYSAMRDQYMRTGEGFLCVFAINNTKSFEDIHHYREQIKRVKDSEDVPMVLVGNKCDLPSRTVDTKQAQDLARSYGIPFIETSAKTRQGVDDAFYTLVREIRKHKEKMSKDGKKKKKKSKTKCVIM

`C[C@H]1Cc2nc(-c3ccc(F)c4sc(N)c(C#N)c34)c(F)c3nc(OCC45CCCN4CCC5)nc(c23)N2C[C@@]3(F)CC[C@](F)(N3)[C@H]12` [Example 4-14, 2-amino-7-fluoro-4-((5S,5aS,6R,9S)-1,6,9-trifluoro-5-methyl-12-((tetrahydro-1H-pyrrolizin-7a(5H)-yl)methoxy)-4,5,5a,6,7,8,9,10-octahydro-3,10a,11,13,14-pentaaza-6,9-methanonaphtho[1,8-ab]heptalen-2-yl)benzo[b]thiophene-3-carbonitrile] showed an IC50 (GDP-loaded KRAS-G12D) of 1.15 nM, an EC50 [1] of 10.6 nM and an IC50 (GDP-loaded KRAS-G12V) of 0.537 nM. It also gave an IC50 [2] of 0.321 nM, an EC50 [3] of 5.29 nM and an IC50 (GDP-loaded KRAS-G12C) of 0.534 nM. For the same compound, the EC50 [4] was 1.15 nM and the EC50 [5] was 40.2 nM.
Compound `C#Cc1c(F)ccc2cc(O)cc(-c3c(F)c4c5c(nc(OC[C@@]67CCCN6C[C@H](F)C7)nc5c3F)N3C[C@@]5(F)CC[C@H](N5)[C@H]3CC4)c12` [Example 4-41, 5-ethynyl-6-fluoro-4-((1S,4S,14aR)-4,10,12-trifluoro-8-(((2R,7aS)-2-fluorotetrahydro-1H-pyrrolizin-7a(5H)-yl)methoxy)-1,2,3,4,5,13,14,14a-octahydro-1,4-epiminoazepino[1′,2′:1,7]azepino[2,3,4-de]quinazolin-11-yl)naphthalen-2-ol] has an IC50 (GDP-loaded KRAS-G12D) of 1.41 nM, an EC50 [1] of 8.27 nM and an IC50 (GDP-loaded KRAS-G12V) of 0.949 nM. The IC50 [2] was 0.5 nM, the EC50 [3] was 4.42 nM and the IC50 (GDP-loaded KRAS-G12C) was 0.386 nM. It also gave an EC50 [4] of 0.501 nM and an EC50 [5] of 29.7 nM.
`N#Cc1c(N)sc2c(F)ccc(-c3nc4c5c(nc(OC[C@@]67CCCN6C[C@H](F)C7)nc5c3F)N3C[C@@]5(F)CC[C@](F)(N5)[C@@H]3CC4)c12` [Example 4-21, 2-amino-7-fluoro-4-((5aS,6R,9S)-1,6,9-trifluoro-12-(((2R,7aS)-2-fluorotetrahydro-1H-pyrrolizin-7a(5H)-yl)methoxy)-4,5,5a,6,7,8,9,10-octahydro-3,10a,11,13,14-pentaaza-6,9-methanonaphtho[1,8-ab]heptalen-2-yl)benzo[b]thiophene-3-carbonitrile] showed an IC50 (GDP-loaded KRAS-G12D) of 2.32 nM, an EC50 [1] of 1.73 nM and an IC50 (GDP-loaded KRAS-G12V) of 0.844 nM. It also gave an IC50 [2] of 0.18 nM, an EC50 [3] of 1.1 nM and an IC50 (GDP-loaded KRAS-G12C) of 0.363 nM. The EC50 [4] was 0.313 nM and the EC50 [5] was 5.96 nM.
`Cc1c(F)c(N)cc(-c2nc3c4c(nc(OC[C@@]56CCCN5C[C@H](F)C6)nc4c2F)N2C[C@@]4(F)CC[C@](F)(N4)[C@H]2CCC3)c1C(F)(F)F` [Example 4-4] was tested, and the IC50 (GDP-loaded KRAS-G12D) was greater than 100 nM, the EC50 [1] was 15.4 nM and the IC50 (GDP-loaded KRAS-G12V) was 45.1 nM. The IC50 [2] was 25.8 nM, the EC50 [3] was 884 nM and the IC50 (GDP-loaded KRAS-G12C) was 46.7 nM. It also gave an EC50 [4] of 59.4 nM and an EC50 [5] of 175 nM.
Compound `Cc1c(F)c(N)cc(-c2nc3c4c(nc(OCC56CCCN5CCC6)nc4c2F)N2C[C@@]4(F)CC[C@](F)(N4)[C@@H]2[C@@H](C)C3)c1C(F)(F)F` [Example 4-13, 2-fluoro-3-methyl-5-((5S,5aS,6R,9S)-1,6,9-trifluoro-5-methyl-12-((tetrahydro-1H-pyrrolizin-7a(5H)-yl)methoxy)-4,5,5a,6,7,8,9,10-octahydro-3,10a,11,13,14-pentaaza-6,9-methanonaphtho[1,8-ab]heptalen-2-yl)-4-(trifluoromethyl)aniline] has an IC50 (GDP-loaded KRAS-G12D) of 20.2 nM, an EC50 [1] of 2.77 nM and an IC50 (GDP-loaded KRAS-G12V) of 8.04 nM. The IC50 [2] was 0.411 nM, the EC50 [3] was 18.3 nM and the IC50 (GDP-loaded KRAS-G12C) was 3.81 nM. The EC50 [4] was 5.66 nM and the EC50 [5] was 109 nM.
In the case of `Nc1cc(-c2nc3c4c(nc(OCC56CCCN5CCC6)nc4c2F)N2C[C@@]4(F)CC[C@](F)(N4)[C@H]2CCC3)c2c(OC(F)(F)F)c(F)ccc2c1` [Example 5-5, 6-fluoro-4-[(4S,7R,8R)-4,7,15-trifluoro-18-(1,2,3,5,6,7-hexahydropyrrolizin-8-ylmethoxy)-2,13,17,19,21-pentazapentacyclo[10.7.1.14,7.02,8.016,20]henicosa-1(19),12(20),13,15,17-pentaen-14-yl]-5-(trifluoromethoxy)naphthalen-2-amine], the IC50 (GDP-loaded KRAS-G12D) is reported as no less than 100 nM, the EC50 [1] is reported as 5.9 nM and the IC50 (GDP-loaded KRAS-G12V) is reported as 85 nM. The IC50 [2] was 18.5 nM, the EC50 [3] was 221 nM and the IC50 (GDP-loaded KRAS-G12C) was 21.6 nM. It also gave an EC50 [4] of 33.6 nM and an EC50 [5] of 519 nM.
`C#Cc1c(F)c(F)cc2cc(N)cc(-c3nc4c5c(nc(OCC67CCCN6CCC7)nc5c3F)N3C[C@@]5(F)CC[C@](F)(N5)[C@@H]3[C@@H](C)C4)c12` [Example 5-7, 5-ethynyl-6,7-difluoro-4-((5S,5aS,6R,9S)-1,6,9-trifluoro-5-methyl-12-((tetrahydro-1H-pyrrolizin-7a(5H)-yl)methoxy)-4,5,5a,6,7,8,9,10-octahydro-3,10a,11,13,14-pentaaza-6,9-methanonaphtho[1,8-ab]heptalen-2-yl)naphthalen-2-amine] was tested, and the IC50 (GDP-loaded KRAS-G12D) was 1.03 nM, the EC50 [1] was 2.75 nM and the IC50 (GDP-loaded KRAS-G12V) was 0.723 nM. The IC50 [2] was 0.116 nM, the EC50 [3] was 3.1 nM and the IC50 (GDP-loaded KRAS-G12C) was 0.311 nM. The EC50 [4] was 0.378 nM and the EC50 [5] was 12.4 nM.
`C[C@H]1Cc2nc(-c3cc(N)cc4ccc(F)c(Cl)c34)c(F)c3nc(OCC45CCCN4CCC5)nc(c23)N2C[C@@]3(F)CC[C@](F)(N3)[C@H]12` [Example 5-3] gave an IC50 (GDP-loaded KRAS-G12D) of 7.83 nM, an EC50 [1] of 1.45 nM and an IC50 (GDP-loaded KRAS-G12V) of 2.96 nM. It also gave an IC50 [2] of 0.266 nM, an EC50 [3] of 9.64 nM and an IC50 (GDP-loaded KRAS-G12C) of 1.55 nM. The EC50 [4] was 0.897 nM and the EC50 [5] was 31.3 nM.
In the case of `C#Cc1c(F)ccc2cc(N)cc(-c3nc4c5c(nc(OC[C@@]67CCCN6[C@H](COC(C(F)(F)F)(C(F)(F)F)C(F)(F)F)CC7)nc5c3F)N3C[C@@]5(F)CC[C@](F)(N5)[C@@H]3[C@@H](C)C4)c12` [Example 4-36, 5-ethynyl-6-fluoro-4-((5S,5aS,6R,9S)-1,6,9-trifluoro-12-(((3S,7aS)-3-(((1,1,1,3,3,3-hexafluoro-2-(trifluoromethyl)propan-2-yl)oxy)methyl)tetrahydro-1H-pyrrolizin-7a(5H)-yl)methoxy)-5-methyl-4,5,5a,6,7,8,9,10-octahydro-3,10a,11,13,14-pentaaza-6,9-methanonaphtho[1,8-ab]heptalen-2-yl)naphthalen-2-amine], the IC50 (GDP-loaded KRAS-G12D) is reported as greater than 100 nM, the EC50 [1] is reported as 671 nM and the IC50 (GDP-loaded KRAS-G12V) is reported as greater than 100 nM. It also gave an IC50 [2] greater than 100 nM, an EC50 [3] greater than 1000 nM and an IC50 (GDP-loaded KRAS-G12C) greater than 100 nM. It also gave an EC50 [4] greater than 1000 nM and an EC50 [5] greater than 1000 nM.
`C#Cc1c(F)ccc2cc(N)cc(-c3nc4c5c(nc(OC[C@@]67CCCN6[C@H](COC(C(F)(F)F)(C(F)(F)F)C(F)(F)F)CC7)nc5c3F)N3C[C@@]5(F)CC[C@](F)(N5)[C@H]3CCC4)c12` [Example 4-28, 5-ethynyl-6-fluoro-4-((6aR,7R,10S)-1,7,10-trifluoro-13-(((3S,7aS)-3-(((1,1,1,3,3,3-hexafluoro-2-(trifluoromethyl)propan-2-yl)oxy)methyl)tetrahydro-1H-pyrrolizin-7a(5H)-yl)methoxy)-5,6,6a,7,8,9,10,11-octahydro-4H-3,11a,12,14,15-pentaaza-7,10-methanocyclohepta[4,5]cycloocta[1,2,3-de]naphthalen-2-yl)naphthalen-2-amine] was tested, and the IC50 (GDP-loaded KRAS-G12D) was 59.4 nM, the EC50 [1] was 7.5 nM and the IC50 (GDP-loaded KRAS-G12V) was 44.8 nM. It also gave an IC50 [2] of 4.98 nM, an IC50 (GDP-loaded KRAS-G12C) of 7.3 nM and an EC50 [4] of 5.6 nM. The EC50 [5] was 117 nM.
